How the values were obtained:
Assay type in all cases: cell-based
[1] = tested on: Thrombin-stimulated Ca2+ response in HT-29 cells; assay: Ca FLIPR TETRA assay, ANTAGONIST mode, activator 1 U/mL Thrombin; conditions: HT-29 cells, activator 1 U/mL Thrombin
In short: (§1)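 Compounds are added to calcium 5-loaded HT-29 cells, read once for intrinsic Ca2+ activation, then incubated 30 min at room temperature. The same wells are then stimulated with a fixed final activator level and the Ca2+ response recorded on FLIPR Tetra.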

PAR2 (HT-29 cells) [2] = target: T1, PAR2 (HT-29 cells) (Homo sapiens, UniProt P55085); assay: Ca FLIPR TETRA assay, ANTAGONIST mode, activator 8 μM SLIGKV; conditions: HT-29 cells; activator 8 μM SLIGKV; Method A: maximal concentration of antagonist 0.1, 1 or 2 μM
T1 construct: host or cells: HT-29
T1 sequence (P55085 26-397): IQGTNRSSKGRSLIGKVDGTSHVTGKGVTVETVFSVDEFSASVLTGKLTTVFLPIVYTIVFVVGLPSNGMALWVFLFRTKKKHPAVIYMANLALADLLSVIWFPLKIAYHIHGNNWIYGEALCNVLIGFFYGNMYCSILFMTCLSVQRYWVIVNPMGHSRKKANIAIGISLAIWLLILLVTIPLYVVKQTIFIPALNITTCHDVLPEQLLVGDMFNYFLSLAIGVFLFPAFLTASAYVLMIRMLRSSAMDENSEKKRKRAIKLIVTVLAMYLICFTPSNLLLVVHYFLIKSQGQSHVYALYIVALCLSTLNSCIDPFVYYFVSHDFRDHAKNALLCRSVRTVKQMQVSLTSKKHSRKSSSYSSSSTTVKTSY
In short: as §1

PAR2 (HT-29 cells) [3] = target: T1, PAR2 (HT-29 cells); assay: Ca FLIPR TETRA assay, ANTAGONIST mode, activator 3.1 U/mL trypsin; conditions: HT-29 cells; activator 3.1 U/mL trypsin; Method A: maximal concentration of antagonist 0.1, 1 or 2 μM
In short: as §1

[4] = tested on: UTP-stimulated Ca2+ response in HT-29 cells; assay: Ca FLIPR TETRA assay, ANTAGONIST mode, activator 0.6 μM UTP; conditions: HT-29 cells, activator 0.6 μM UTP
In short: as §1

| Structure (SMILES) | IC50 ([1]; Homo sapiens) [nM] | IC50 (PAR2 (HT-29 cells) [2]) [nM] | IC50 (PAR2 (HT-29 cells) [3]) [nM] | IC50 ([4]; Homo sapiens) [nM] | IC50 [1] [nM] | IC50 [4] [nM] |
| --- | --- | --- | --- | --- | --- | --- |
| Cc1cc(N2CCN(C(=O)c3cc4nc(-c5ccc(Cl)c(F)c5)cc(C(C)(C)C)c4o3)C(C)(C)C2)ncc1C(=O)O [Example I-400] | 1010 | 0.3 | 0.4 | 810 | – | – |
| Cc1cc(C(=O)O)nc(N2CCN(C(=O)c3cc4nc(-c5ccc(Cl)cc5)cc(C(C)(C)C)c4o3)C(C)(C)C2)n1 [Example I-401] | 960 | 0.3 | 0.5 | 710 | – | – |
| CC(C)(C)c1cc(-c2ccc(Cl)cc2)nc2cc(C(=O)N3CCN(c4cnccn4)CC3(C)C)oc12 [Example I-402] | > 2000 | 21 | 15 | > 2000 | – | – |
| Cc1ccnc(N2CCN(C(=O)c3cc4nc(-c5ccc(Cl)cc5)cc(C(C)(C)C)c4o3)C(C)(C)C2)n1 [Example I-403] | > 2000 | 23 | 24 | > 2000 | – | – |
| CC(C)(C)c1cc(-c2ccc(Cl)cc2)nc2cc(C(=O)N3CCN(c4ncccn4)CC3(C)C)oc12 [Example I-404] | > 2000 | 25 | 16 | > 2000 | – | – |
| CC(C)(C)c1cc(-c2ccc(Cl)c(F)c2)nc2cc(C(=O)N3CCN(c4ccc(C(=O)O)cn4)C(=O)C3(C)C)oc12 [Example I-405] | 750 | 1.8 | 1.7 | 580 | – | – |
| CC(C)(C)c1cc(-c2ccc(Cl)c(F)c2)nc2cc(C(=O)N3CCN(c4ccn[nH]4)C(=O)C3(C)C)oc12 [Example I-406] | > 2000 | 10 | 8.8 | > 2000 | – | – |
| CC(C)(C)c1cc(-c2ccc(Cl)cc2)nc2cc(C(=O)N3CCN(c4ccn[nH]4)C(=O)C3(C)C)oc12 [Example I-407] | > 2000 | 17 | 17 | > 2000 | – | – |
| Cc1cc(C(=O)O)nc(N2CCN(C(=O)c3cc4nc(C5CCC(C)(C)CC5)cc(C(C)(C)C)c4o3)C(C)(C)C2)n1 [Example I-408] | 860 | 0.7 | 1 | 510 | – | – |
| Cc1cc(C(=O)O)nc(N2CCN(C(=O)c3cc4nc(-c5ccc(Cl)c(F)c5)cc(C(C)(C)C)c4o3)C(C)(C)C2=O)n1 [Example I-409] | – | 0.3 | 0.5 | – | > 1010 | 560 |
| Cc1nc(N2CCN(C(=O)c3cc4nc(-c5ccc(Cl)cc5)cc(C(C)(C)C)c4o3)C(C)(C)C2)ncc1C(=O)O [Example I-410] | – | 0.6 | 0.9 | – | > 1010 | > 1010 |
| Cc1nc(N2CCN(C(=O)c3cc4nc(-c5ccc(Cl)c(F)c5)cc(C(C)(C)C)c4o3)C(C)(C)C2)ccc1C(=O)O [Example I-411] | > 2000 | 0.2 | 0.3 | > 2000 | – | – |
| CC(C)(C)c1cc(-c2ccc(Cl)c(F)c2)nc2cc(C(=O)N3CCN(c4ccncn4)CC3(C)C)oc12 [Example I-412] | > 2000 | 13.1 | 15 | > 2000 | – | – |
| CC1(C)CCC(c2cc(C(C)(C)C)c3oc(C(=O)N4CCN(c5ccc(C(=O)O)cn5)CC4(C)C)cc3n2)CC1 [Example I-413] | 810 | 0.6 | 0.8 | 810 | – | – |
| CC1(C)CCC(c2cc(C(C)(C)C)c3oc(C(=O)N4CCN(c5ccnc(C(=O)O)n5)CC4(C)C)cc3n2)CC1 [Example I-414] | > 2000 | 8.5 | 16 | > 2000 | – | – |
| CC(C)(C)c1cc(-c2ccc(Cl)cc2)nc2cc(C(=O)N3CCN(c4ccnc(C(=O)O)n4)CC3(C)C)oc12 [Example I-415] | > 2000 | 19 | 19 | > 2000 | – | – |
| CC1(C)CCC(c2cc(C(C)(C)C)c3oc(C(=O)N4CCN(C(=O)CC(C)(C)C(=O)O)CC4(C)C)cc3n2)CC1 [Example I-416] | > 1630 | 0.4 | 0.7 | > 1630 | – | – |
| CC(C)(CC(=O)N1CCN(C(=O)c2cc3nc(-c4ccc(Cl)c(F)c4)cc(C(C)(C)C)c3o2)C(C)(C)C1)C(=O)O [Example I-417] | > 1630 | 0.2 | 0.4 | > 1630 | – | – |
| CC1(C)CCC(c2cc(C(C)(C)C)c3oc(C(=O)N4CCN(C(=O)CCC(=O)O)CC4(C)C)cc3n2)CC1 [Example I-418] | > 1250 | 2.1 | 5.6 | > 1250 | – | – |
| CC(C)(C)c1cc(-c2ccc(Cl)c(F)c2)nc2cc(C(=O)N3CCN(C(=O)CCC(=O)O)CC3(C)C)oc12 [Example I-419] | > 1250 | 1.1 | 3 | > 1250 | – | – |
| CC(C)(C)c1cc(-c2ccc(Cl)cc2)nc2cc(C(=O)N3CCN(C(=O)CCC(=O)O)CC3(C)C)oc12 [Example I-420] | > 1250 | 4.6 | 9.8 | > 1250 | – | – |
| CC(C)(C)c1cc(-c2ccc(F)cc2)nc2cc(C(=O)N3CCN(c4cnc(C(=O)O)cn4)CC3(C)C)oc12 [Example I-421] | – | 1.5 | 3.4 | – | 600 | 750 |
| CC(C)(C)c1cc(-c2ccc(Cl)c(F)c2)nc2cc(C(=O)N3CCC(C(=O)[C@H]4CC[C@@](C)(C(=O)O)CC4)CC3(C)C)oc12 (stereo partly drawn) [Example I-422] | – | 0.2 | 0.3 | – | 2000 | 1500 |
| CC(C)(C)c1cc(-c2ccc(Cl)cc2)nc2cc(C(=O)N3CCN(C(=O)[C@H]4CC[C@@](C)(C(=O)O)CC4)CC3(C)C)oc12 [Example I-423] | > 2000 | 0.4 | 0.7 | > 2000 | – | – |
| CC(C)(C)c1cc(-c2ccc(Cl)c(F)c2)nc2cc(C(=O)N3CCC(c4nc(C(=O)O)cs4)CC3(C)C)oc12 (stereo not drawn) [Example I-424] | – | 0.1 | 0.3 | – | 1800 | 1200 |
| Cc1oc(C2CCN(C(=O)c3cc4nc(C5CCC(C)(C)CC5)cc(C(C)(C)C)c4o3)C(C)(C)C2)nc1C(=O)O (stereo not drawn) [Example I-425] | – | 0.3 | 0.4 | – | > 2000 | > 2000 |
| CC(C)(C)c1cc(-c2ccc(Cl)cc2)nc2cc(C(=O)N3CCC(c4nc(C(=O)O)cs4)CC3(C)C)oc12 (stereo not drawn) [Example I-426] | – | 0.1 | 0.1 | – | 1800 | 1300 |
| CC1(C)CCC(c2cc(C(C)(C)C)c3oc(C(=O)N4CCC(c5ncc(C(=O)O)cn5)CC4(C)C)cc3n2)CC1 (stereo not drawn) [Example I-427] | – | 0.5 | 0.8 | – | 420 | 520 |
| CC(C)(C)c1cc(-c2ccc(Cl)c(F)c2)nc2cc(C(=O)N3CCC(c4ncc(C(=O)O)cn4)CC3(C)C)oc12 (stereo not drawn) [Example I-428] | – | 0.6 | 0.7 | – | 1600 | 1700 |
| CC(C)(C)c1cc(-c2ccc(Cl)cc2)nc2cc(C(=O)N3CCC(c4ncc(C(=O)O)cn4)CC3(C)C)oc12 (stereo not drawn) [Example I-429] | – | 0.4 | 0.5 | – | 400 | 440 |

From patent publication US20180057505A1, “BICYCLIC HETEROARYL COMPOUNDS USEFUL AS INHIBITORS OF THE PAR-2 SIGNALING PATHWAY” (VERTEX PHARMACEUTICALS INCORPORATED, priority 2015, published 2018)
